Laboratory results from ChEMBL document CHEMBL1201861, “Genomics of Drug Sensitity in Cancer screening data, Wellcome Trust Sanger Institute”.

Legend:
Assay type in all cases: functional, cell-based
HCC2157 = assay: cells; conditions: Homo sapiens;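 also: growth inhibition of the cancer cell line, read out as cell viability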
Description: SANGER: Inhibition of human HCC2157 cell growth in a cell viability assay.

IMR-5 = assay: cells; conditions: Homo sapiens;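 also: growth inhibition of human IMR-5 cells, read out with a cell viability assay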
Description: SANGER: Inhibition of human IMR-5 cell growth in a cell viability assay.

KARPAS-422 = assay: cells; conditions: Homo sapiens
Description: SANGER: Inhibition of human KARPAS-422 cell growth in a cell viability assay.

Kasumi 1 = assay: cells; conditions: Homo sapiens;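 also: growth inhibition of human Kasumi-1 cells, read out by a cell viability assay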
Description: SANGER: Inhibition of human KASUMI-1 cell growth in a cell viability assay.

LC4-1 = assay: cells; conditions: Homo sapiens;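 also: growth inhibition of LC4-1 cells, read out with a cell viability assay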
Description: SANGER: Inhibition of human LC4-1 cell growth in a cell viability assay.

MC-CAR = assay: cells; conditions: Homo sapiens;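 also: growth inhibition of the human MC-CAR cell line, read out by a cell viability assay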
Description: SANGER: Inhibition of human MC-CAR cell growth in a cell viability assay.

MDA-MB-134-VI = assay: cells; conditions: Homo sapiens
Description: SANGER: Inhibition of human MDA-MB-134-VI cell growth in a cell viability assay.

MHH-CALL-2 = assay: cells; conditions: Homo sapiens;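 also: growth inhibition of the cell line, read out in a cell viability assay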
Description: SANGER: Inhibition of human MHH-CALL-2 cell growth in a cell viability assay.

NB17 = assay: cells; conditions: Homo sapiens;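 also: growth inhibition of NB17 cells, read out with a cell viability assay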
Description: SANGER: Inhibition of human NB17 cell growth in a cell viability assay.

NCI-H1436 = assay: cells; conditions: Homo sapiens;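 also: growth suppression of human NCI-H1436 cells, determined with a cell viability readout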
Description: SANGER: Inhibition of human NCI-H1436 cell growth in a cell viability assay.

NCI-H1882 = assay: cells; conditions: Homo sapiens;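 also: growth inhibition of the cell line, determined with a viability assay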
Description: SANGER: Inhibition of human NCI-H1882 cell growth in a cell viability assay.

RL = assay: cells; conditions: Homo sapiens
Description: SANGER: Inhibition of human RL cell growth in a cell viability assay.

SIMA = assay: cells; conditions: Homo sapiens;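 also: growth inhibition of SIMA cells, measured with a cell viability readout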
Description: SANGER: Inhibition of human SIMA cell growth in a cell viability assay.

SU-DHL-1 = assay: SANGER: Inhibition of human SU-DHL-1 cell growth in a cell viability assay.
CA46 = assay: cells; conditions: Homo sapiens;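 also: growth inhibition of human CA46 cells, read out by a cell viability assay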
Description: SANGER: Inhibition of human CA46 cell growth in a cell viability assay.

TE-15 = assay: cells; conditions: Homo sapiens;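 also: cell viability readout of growth inhibition in TE-15 cells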
Description: SANGER: Inhibition of human TE-15 cell growth in a cell viability assay.

CMK = assay: cells; conditions: Homo sapiens;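 also: growth inhibition of CMK cells, read out as cell viability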
Description: SANGER: Inhibition of human CMK cell growth in a cell viability assay.

D-392MG = assay: cells; conditions: Homo sapiens
DK-MG = assay: cells; conditions: Homo sapiens;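 also: growth inhibition of DK-MG cells, read out with a cell viability assay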
Description: SANGER: Inhibition of human DK-MG cell growth in a cell viability assay.

EFO-27 = assay: cells; conditions: Homo sapiens;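 also: growth inhibition of EFO-27 cells, read out with a cell viability assay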
Description: SANGER: Inhibition of human EFO-27 cell growth in a cell viability assay.

G-401 = assay: cells; conditions: Homo sapiens
Description: SANGER: Inhibition of human G-401 cell growth in a cell viability assay.

HCC1954 = assay: cells; conditions: Homo sapiens;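 also: growth inhibition of human HCC1954 cells, read out with a cell viability assay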
Description: SANGER: Inhibition of human HCC1954 cell growth in a cell viability assay.

HCC70 = assay: cells; conditions: Homo sapiens;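 also: cell viability assay measuring how strongly the compound suppresses proliferation of HCC70 cells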
Description: SANGER: Inhibition of human HCC70 cell growth in a cell viability assay.

HMV-2 cell line = assay: cells; conditions: Homo sapiens;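 also: growth inhibition of HMV-II cells, read out with a cell viability assay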
Description: SANGER: Inhibition of human HMV-II cell growth in a cell viability assay.

HSC-4 = assay: cells; conditions: Homo sapiens;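 also: growth inhibition of human HSC-4 cells, read out with a cell viability assay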
Description: SANGER: Inhibition of human HSC-4 cell growth in a cell viability assay.

HuP-T3 = assay: cells; conditions: Homo sapiens;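 also: HuP-T3 cell growth inhibition, read out with a cell viability assay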
Description: SANGER: Inhibition of human HuP-T3 cell growth in a cell viability assay.

KOSC-2 = assay: cells; conditions: Homo sapiens;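 also: growth inhibition of KOSC-2 cells, read out by a cell viability assay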
Description: SANGER: Inhibition of human KOSC-2 cell growth in a cell viability assay.

KP-4 = assay: cells; conditions: Homo sapiens;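 also: human KP-4 cells, with growth inhibition read out through a cell viability assay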
Description: SANGER: Inhibition of human KP-4 cell growth in a cell viability assay.

MDA-MB-361 = assay: cells; conditions: Homo sapiens
MIA PaCa-2 = assay: cells; conditions: Homo sapiens;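 also: growth inhibition of MIA PaCa-2 cells, read out with a cell viability assay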
Description: SANGER: Inhibition of human MIA-PaCa-2 cell growth in a cell viability assay.

NCI-H2087 = assay: cells; conditions: Homo sapiens;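 also: growth inhibition determined with a cell viability readout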
Description: SANGER: Inhibition of human NCI-H2087 cell growth in a cell viability assay.

NCI-H2405 = assay: cells; conditions: Homo sapiens;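 also: growth inhibition of the human cell line, read out with a cell viability assay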
Description: SANGER: Inhibition of human NCI-H2405 cell growth in a cell viability assay.

NCI-H28 = assay: cells; conditions: Homo sapiens;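 also: growth inhibition of human NCI-H28 cells, read out as cell viability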
Description: SANGER: Inhibition of human NCI-H28 cell growth in a cell viability assay.

NCI-H650 = assay: cells; conditions: Homo sapiens;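 also: growth inhibition of NCI-H650 cells, read out by a viability assay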
Description: SANGER: Inhibition of human NCI-H650 cell growth in a cell viability assay.

NCI-H661 = assay: cells; conditions: Homo sapiens;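 also: cell viability assay read-out, IC50 being the concentration that inhibits growth of the cells by half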
Description: SANGER: Inhibition of human NCI-H661 cell growth in a cell viability assay.

NCI-H810 = assay: cells; conditions: Homo sapiens;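 also: IC50 reflects inhibition of cancer cell line growth, read out with a cell viability assay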
Description: SANGER: Inhibition of human NCI-H810 cell growth in a cell viability assay.

NCI-N87 = assay: cells; conditions: Homo sapiens;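 also: growth inhibition of human NCI-N87 cells, read out with a cell viability assay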
Description: SANGER: Inhibition of human NCI-N87 cell growth in a cell viability assay.

OAW-28 = assay: cells; conditions: Homo sapiens;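 also: growth inhibition of OAW-28 cells, read out with a cell viability assay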
Description: SANGER: Inhibition of human OAW-28 cell growth in a cell viability assay.

OAW-42 = assay: cells; conditions: Homo sapiens;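 also: growth inhibition of OAW-42 cells, read out with a cell viability assay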
Description: SANGER: Inhibition of human OAW-42 cell growth in a cell viability assay.

P12-Ichikawa = assay: cells; conditions: Homo sapiens
PANC-03-27 = assay: cells; conditions: Homo sapiens
Description: SANGER: Inhibition of human PANC-03-27 cell growth in a cell viability assay.

RMG-I = assay: cells; conditions: Homo sapiens;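 also: growth inhibition of human RMG-I cells, read out with a cell viability assay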
Description: SANGER: Inhibition of human RMG-I cell growth in a cell viability assay.

RPMI-7951 = assay: cells; conditions: Homo sapiens
Description: SANGER: Inhibition of human RPMI-7951 cell growth in a cell viability assay.

RVH-421 = assay: cells; conditions: Homo sapiens
Description: SANGER: Inhibition of human RVH-421 cell growth in a cell viability assay.

S-117 = assay: cells; conditions: Homo sapiens
Description: SANGER: Inhibition of human S-117 cell growth in a cell viability assay.

SCC-25 = assay: cells; conditions: Homo sapiens;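 also: growth inhibition of SCC-25 cells, measured with a cell viability assay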
Description: SANGER: Inhibition of human SCC-25 cell growth in a cell viability assay.

SK-MES-1 = assay: cells; conditions: Homo sapiens;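 also: growth inhibition of human SK-MES-1 cells, read out with a cell viability assay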
Description: SANGER: Inhibition of human SK-MES-1 cell growth in a cell viability assay.

SKG-IIIa = assay: cells; conditions: Homo sapiens;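 also: cell growth inhibition, read out with a cell viability assay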
Description: SANGER: Inhibition of human SKG-IIIa cell growth in a cell viability assay.

SN12C = assay: cells; conditions: Homo sapiens;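 also: growth inhibition of human SN12C cells, measured by a cell viability assay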
Description: SANGER: Inhibition of human SN12C cell growth in a cell viability assay.

SW13 = assay: cells; conditions: Homo sapiens;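 also: IC50 is inhibition of SW13 cell growth, read out with a cell viability assay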
Description: SANGER: Inhibition of human SW13 cell growth in a cell viability assay.

SW1573 = assay: cells; conditions: Homo sapiens;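 also: growth inhibition of SW1573 cells, read out with a cell viability assay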
Description: SANGER: Inhibition of human SW1573 cell growth in a cell viability assay.

T98G = assay: cells; conditions: Homo sapiens;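 also: growth inhibition of T98G cells, read out by a cell viability assay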
Description: SANGER: Inhibition of human T98G cell growth in a cell viability assay.

A204 = assay: cells; conditions: Homo sapiens;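 also: growth inhibition of human A204 cells, read out with a cell viability assay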
Description: SANGER: Inhibition of human A204 cell growth in a cell viability assay.

A2058 = assay: cells; conditions: Homo sapiens;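 also: reduction of A2058 cell growth, read out with a viability assay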
Description: SANGER: Inhibition of human A2058 cell growth in a cell viability assay.

AGS = assay: cells; conditions: Homo sapiens;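 also: growth inhibition of AGS cells, determined with a cell viability assay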
Description: SANGER: Inhibition of human AGS cell growth in a cell viability assay.

AU565 = assay: cells; conditions: Homo sapiens;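 also: cell viability assay measuring growth inhibition of human AU565 cells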
Description: SANGER: Inhibition of human AU565 cell growth in a cell viability assay.

BFTC-909 = assay: cells; conditions: Homo sapiens
Description: SANGER: Inhibition of human BFTC-909 cell growth in a cell viability assay.

CAL-51 = assay: cells; conditions: Homo sapiens;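 also: human CAL-51 cell line, growth inhibition read out via a cell viability assay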
Description: SANGER: Inhibition of human CAL-51 cell growth in a cell viability assay.

CAL-62 = assay: cells; conditions: Homo sapiens;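 also: growth inhibition of CAL-62 cells, read out with a cell viability assay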
Description: SANGER: Inhibition of human CAL-62 cell growth in a cell viability assay.

CAL-85-1 = assay: cells; conditions: Homo sapiens;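 also: growth inhibition of human CAL-85-1 cells, read out with a cell viability assay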
Description: SANGER: Inhibition of human CAL-85-1 cell growth in a cell viability assay.

UACC-62 = assay: cells; conditions: Homo sapiens;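 also: growth inhibition of human UACC-62 cells, read out by a cell viability assay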
Description: SANGER: Inhibition of human UACC-62 cell growth in a cell viability assay.

WM-115 = assay: cells; conditions: Homo sapiens
Description: SANGER: Inhibition of human WM-115 cell growth in a cell viability assay.

CAMA-1 = assay: cells; conditions: Homo sapiens;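 also: growth inhibition of CAMA-1 cells, read out with a cell viability assay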
Description: SANGER: Inhibition of human CAMA-1 cell growth in a cell viability assay.

COLO-679 = assay: cells; conditions: Homo sapiens
Description: SANGER: Inhibition of human COLO-679 cell growth in a cell viability assay.

Compound: Cc1nc(Nc2ncc(C(=O)Nc3c(C)cccc3Cl)s2)cc(N2CCN(CCO)CC2)n1 [DASATINIB]
- IC50 (HCC2157): > 1280 nM
- IC50 (IMR-5): > 1280 nM
- IC50 (KARPAS-422): 340 nM
- IC50 (Kasumi 1): > 1280 nM
- IC50 (LC4-1): > 1280 nM
- IC50 (MC-CAR): > 1280 nM
- IC50 (MDA-MB-134-VI): > 1280 nM
- IC50 (MHH-CALL-2): > 1280 nM
- IC50 (NB17): > 1280 nM
- IC50 (NCI-H1436): > 1280 nM
- IC50 (NCI-H1882): > 1280 nM
- IC50 (RL): > 1280 nM
- IC50 (SIMA): > 1280 nM
- IC50 (SU-DHL-1): > 1280 nM
- IC50 (CA46): > 1280 nM
- IC50 (TE-15): 5.89 nM
- IC50 (CMK): > 1280 nM

Compound: COc1cc(C)c(Sc2cnc(NC(=O)c3ccc(CNC(C)C(C)(C)C)cc3)s2)cc1C(=O)N1CCN(C(C)=O)CC1 (stereo unspecified)
- IC50 (HCC2157): > 10200 nM
- IC50 (IMR-5): > 10200 nM
- IC50 (KARPAS-422): > 10200 nM
- IC50 (Kasumi 1): > 10200 nM
- IC50 (LC4-1): > 10200 nM
- IC50 (MC-CAR): > 10200 nM
- IC50 (MDA-MB-134-VI): > 10200 nM
- IC50 (MHH-CALL-2): > 10200 nM
- IC50 (NB17): 8920 nM
- IC50 (NCI-H1436): > 10200 nM
- IC50 (NCI-H1882): > 10200 nM
- IC50 (RL): > 10200 nM
- IC50 (SIMA): > 10200 nM
- IC50 (SU-DHL-1): > 10200 nM
- IC50 (CA46): > 10200 nM
- IC50 (TE-15): > 10200 nM
- IC50 (CMK): > 10200 nM

Compound: C/C=C(/C)C(=O)O[C@H]1C(C)=C2[C@H]([C@@H]1OC(=O)CCCCCCC)[C@@](C)(OC(C)=O)C[C@H](OC(=O)CCC)[C@@]1(O)[C@H]2OC(=O)[C@@]1(C)O [THAPSIGARGIN]
- IC50 (D-392MG): > 512 nM
- IC50 (DK-MG): 47.2 nM
- IC50 (EFO-27): 25.4 nM
- IC50 (G-401): 25.1 nM
- IC50 (HCC1954): 24.9 nM
- IC50 (HCC2157): 3.49 nM
- IC50 (HCC70): 22.6 nM
- IC50 (HMV-2 cell line): 6.87 nM
- IC50 (HSC-4): > 512 nM
- IC50 (HuP-T3): 18.1 nM
- IC50 (IMR-5): 15.6 nM
- IC50 (KARPAS-422): 23.9 nM
- IC50 (KOSC-2): 425 nM
- IC50 (KP-4): 2.64 nM
- IC50 (LC4-1): 42.3 nM
- IC50 (MC-CAR): 24.4 nM
- IC50 (MDA-MB-134-VI): > 512 nM
- IC50 (MDA-MB-361): 4.73 nM
- IC50 (MHH-CALL-2): 468 nM
- IC50 (MIA PaCa-2): 3.3 nM
- IC50 (NCI-H1436): > 512 nM
- IC50 (NCI-H1882): > 512 nM
- IC50 (NCI-H2087): 0.546 nM
- IC50 (NCI-H2405): 1.14 nM
- IC50 (NCI-H28): > 512 nM
- IC50 (NCI-H650): 296 nM
- IC50 (NCI-H661): 19.9 nM
- IC50 (NCI-H810): 7.14 nM
- IC50 (NCI-N87): > 512 nM
- IC50 (OAW-28): 50.3 nM
- IC50 (OAW-42): 27 nM
- IC50 (P12-Ichikawa): 24.5 nM
- IC50 (PANC-03-27): < 2 nM
- IC50 (RL): > 512 nM
- IC50 (RMG-I): 13.3 nM
- IC50 (RPMI-7951): 3.98 nM
- IC50 (RVH-421): 3.67 nM
- IC50 (S-117): 40.9 nM
- IC50 (SCC-25): 9.71 nM
- IC50 (SIMA): 38.4 nM
- IC50 (SK-MES-1): < 2 nM
- IC50 (SKG-IIIa): > 512 nM
- IC50 (SN12C): 16.6 nM
- IC50 (SU-DHL-1): > 512 nM
- IC50 (SW13): 9.38 nM
- IC50 (SW1573): 31.1 nM
- IC50 (T98G): 0.741 nM
- IC50 (A204): 17.3 nM
- IC50 (A2058): 2.69 nM
- IC50 (AGS): 8.78 nM
- IC50 (AU565): 1.2 nM
- IC50 (BFTC-909): 0.968 nM
- IC50 (CA46): 2.98 nM
- IC50 (CAL-51): 0.971 nM
- IC50 (CAL-62): 71.6 nM
- IC50 (CAL-85-1): 6.03 nM
- IC50 (TE-15): 4.91 nM
- IC50 (UACC-62): 66.4 nM
- IC50 (WM-115): 21.9 nM
- IC50 (CAMA-1): 10.5 nM
- IC50 (CMK): 33.3 nM
- IC50 (COLO-679): < 2 nM
